In experiment [1] the target is TLR8 (Homo sapiens (Human), UniProt Q9NR97). Nature of the experiment: TLR8 human peripheral blood mononuclear cell (PBMC) cell-based assay (Compound A as agonist; TNFα and IL12p40 readout). Conditions: human PBMCs, TLR8 agonist Compound A at 800 nM, 6 hours, antagonist potency; read-out: TLR-8 EC50. How it is done: After counting, the cell density was adjusted to 2 million cells/ml and incubated for 1 hour at 37° C., 5% CO2 for recovery. Following the recovery, the cells were plated by adding 50 μl per well (100,000 cells) to 384-well cell culture plates (Greiner) containing 250 nl of test antagonists in 100% DMSO per well, in a 10 points dose response in quadruplicates. PBMCs were incubated in the presence of antagonists for one hour at 37° C., 5% CO2 before being stimulated with TLR8 agonist. […] PBMCs were incubated in the presence of antagonist and the TLR8 agonist for an additional 6 hours at 37° C., 5% CO2. At the end of the incubation, the cell culture plates were centrifuged at 500 g for 5 min, and the cell culture supernatant was collected. The level of cytokines (TNFα and IL12p40) in the supernatant was measured by electrochemiluminescence immunoassays (Mesoscale Discovery) following manufacturer's recommended protocols.

Experiment [2] concerns the target TLR7 (Homo sapiens (Human), UniProt Q9NYK1). Nature of the experiment: TLR7 human peripheral blood mononuclear cell (PBMC) cell-based assay (GS-986 as agonist; IL-6 and IFNα readout). Conditions: human PBMCs, TLR7 agonist GS-986 at 400 nM, 6 hours, antagonist potency; read-out: TLR-7 EC50. How it is done:
Human peripheral blood mononuclear cells (PBMCs) consist of lymphocytes, monocytes and dendritic cells that express TLR7, TLR8 and TLR9. These cells respond to TLR7, TLR8 and TLR9 ligand stimulation and produce cytokines and chemokines in vitro and in vivo. Human PBMCs are therefore suitable to be used in a cell-based assay to assess the in vitro potency of a TLR 7, 8, and/or 9 antagonist.
After counting, the cell density was adjusted to 2 million cells/ml and incubated for 1 hour at 37° C., 5% CO2 for recovery. Following the recovery, the cells were plated by adding 50 μl per well (100,000 cells) to 384-well cell culture plates (Greiner) containing 250 nl of test antagonists in 100% DMSO per well, in a 10 points dose response in quadruplicates. PBMCs were incubated in the presence of test antagonists for one hour at 37° C., 5% CO2 before being stimulated with a TLR7 or TLR9agonist. […] PBMCs were incubated in the presence of the test antagonist and the TLR7 (or TLR9) agonist for an additional 6 hours at 37° C., 5% CO2. At the end of the incubation, the cell culture plates were centrifuged at 500 g for 5 min, and the cell culture supernatant was collected. The level of cytokines (IL-6 and IFNα) in the supernatant was measured by electrochemiluminescence immunoassays (Mesoscale Discovery) following manufacturer's recommended protocols.

pEC50: −log10 of the molar value. A value given as a limit tells only on which side of the number the result lay.

As usually defined, the pEC50 is −log10 of the EC50, conventionally taken in molar units.

TLR8, sequence (Q9NR97 27-1041): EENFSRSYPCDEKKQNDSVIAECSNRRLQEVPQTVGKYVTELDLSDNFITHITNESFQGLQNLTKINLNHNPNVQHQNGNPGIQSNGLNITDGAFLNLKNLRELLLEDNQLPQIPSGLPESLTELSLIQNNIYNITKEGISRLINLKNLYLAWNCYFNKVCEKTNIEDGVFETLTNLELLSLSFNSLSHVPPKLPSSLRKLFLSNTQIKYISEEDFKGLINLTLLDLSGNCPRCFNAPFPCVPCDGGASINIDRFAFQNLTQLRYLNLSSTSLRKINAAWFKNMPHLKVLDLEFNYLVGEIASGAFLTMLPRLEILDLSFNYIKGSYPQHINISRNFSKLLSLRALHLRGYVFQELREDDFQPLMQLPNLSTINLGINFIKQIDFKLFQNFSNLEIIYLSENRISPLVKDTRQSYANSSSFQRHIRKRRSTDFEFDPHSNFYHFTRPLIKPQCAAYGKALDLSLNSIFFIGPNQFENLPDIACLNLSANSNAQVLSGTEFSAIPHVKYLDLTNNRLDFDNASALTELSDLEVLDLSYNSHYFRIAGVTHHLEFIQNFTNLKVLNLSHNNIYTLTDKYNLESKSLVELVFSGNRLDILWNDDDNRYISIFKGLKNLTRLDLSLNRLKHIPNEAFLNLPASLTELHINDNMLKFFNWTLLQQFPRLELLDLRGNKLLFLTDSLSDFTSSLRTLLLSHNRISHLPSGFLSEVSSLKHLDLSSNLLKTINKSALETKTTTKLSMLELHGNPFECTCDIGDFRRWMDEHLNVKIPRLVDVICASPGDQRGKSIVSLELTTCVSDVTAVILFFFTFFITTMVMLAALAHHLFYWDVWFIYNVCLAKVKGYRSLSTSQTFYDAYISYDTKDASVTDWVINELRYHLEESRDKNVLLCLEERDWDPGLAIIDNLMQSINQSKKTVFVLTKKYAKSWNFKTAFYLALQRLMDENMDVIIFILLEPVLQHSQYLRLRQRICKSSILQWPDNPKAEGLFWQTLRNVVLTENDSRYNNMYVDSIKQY
TLR7, sequence (Q9NYK1 27-1049): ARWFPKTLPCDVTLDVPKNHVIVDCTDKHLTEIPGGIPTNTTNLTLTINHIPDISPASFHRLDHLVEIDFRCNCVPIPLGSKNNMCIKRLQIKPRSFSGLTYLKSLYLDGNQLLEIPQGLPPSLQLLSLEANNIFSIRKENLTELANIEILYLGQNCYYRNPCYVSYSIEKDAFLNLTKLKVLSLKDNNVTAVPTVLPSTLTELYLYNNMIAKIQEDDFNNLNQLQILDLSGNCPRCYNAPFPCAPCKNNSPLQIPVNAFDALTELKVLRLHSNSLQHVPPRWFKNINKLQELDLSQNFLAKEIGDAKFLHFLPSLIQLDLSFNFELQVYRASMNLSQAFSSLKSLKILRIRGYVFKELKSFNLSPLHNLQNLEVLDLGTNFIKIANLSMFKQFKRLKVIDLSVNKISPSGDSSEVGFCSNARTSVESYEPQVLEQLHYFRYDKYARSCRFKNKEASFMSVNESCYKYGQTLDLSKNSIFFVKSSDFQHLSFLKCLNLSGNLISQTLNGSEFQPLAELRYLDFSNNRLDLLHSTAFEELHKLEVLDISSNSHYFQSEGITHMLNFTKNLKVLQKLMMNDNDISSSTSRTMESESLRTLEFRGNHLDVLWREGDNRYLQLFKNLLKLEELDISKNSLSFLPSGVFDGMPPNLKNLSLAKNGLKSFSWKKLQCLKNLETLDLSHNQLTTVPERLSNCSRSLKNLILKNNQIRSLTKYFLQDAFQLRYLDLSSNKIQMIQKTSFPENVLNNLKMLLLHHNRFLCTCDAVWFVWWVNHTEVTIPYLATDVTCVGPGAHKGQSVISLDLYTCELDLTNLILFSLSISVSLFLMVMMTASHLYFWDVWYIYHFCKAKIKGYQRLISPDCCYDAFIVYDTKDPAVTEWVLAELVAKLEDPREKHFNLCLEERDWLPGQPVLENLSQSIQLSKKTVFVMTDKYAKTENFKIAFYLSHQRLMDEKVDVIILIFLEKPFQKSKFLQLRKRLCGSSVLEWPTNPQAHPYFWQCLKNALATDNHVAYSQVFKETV

Take `Cc1c(-c2[nH]c3sc([C@H]4C[C@@H](c5nnc([C@@H]6COCCN6)o5)C4)c(C)c3c2C(C)C)cn2ncnc2c1C` (single isomer, unassigned) [Example 243]: the pEC50 in experiment [1] is 7.67; in experiment [2], 8.90.
In the case of `Cc1c(-c2[nH]c3sc(C4CC(n5cc(C6COCCN6)nn5)C4)c(C)c3c2C(C)C)cn2ncnc2c1C` (single isomer, unassigned) [Example 244, 3-(1-(3-(5-(7,8-dimethyl-[1,2,4]triazolo[1,5-a]pyridin-6-yl)-4-isopropyl-3-methyl-6H-thieno[2,3-b]pyrrol-2-yl)cyclobutyl)-1H-1,2,3-triazol-4-yl)morpholine], the pEC50 in experiment [1] was 8.03; in experiment [2] it was 9.85.
Taken in the same sequence, the figures for `Cc1c(-c2[nH]c3sc(C4CC(n5cc(C6COCCN6)nn5)C4)c(C)c3c2C(C)C)cn2ncnc2c1C` (single isomer, unassigned) [Example 245, 3-(1-(3-(5-(7,8-dimethyl-[1,2,4]triazolo[1,5-a]pyridin-6-yl)-4-isopropyl-3-methyl-6H-thieno[2,3-b]pyrrol-2-yl)cyclobutyl)-1H-1,2,3-triazol-4-yl)morpholine] were 8.48 and 9.77.
On the same counts, the results for `Cc1c(C2CCCN(CC(N)=O)CC2)sc2[nH]c(-c3cc(C)c4ncnn4c3)c(C(C)C)c12` (single isomer, unassigned) [Example 262, 2-(4-(4-isopropyl-3-methyl-5-(8-methyl-[1,2,4]triazolo[1,5-a]pyridin-6-yl)-6H-thieno[2,3-b]pyrrol-2-yl)azepan-1-yl)acetamide] are 8.34 and over 10.30.
Taken in the same sequence, the figures for `Cc1c(C2CCCN(CC(N)=O)CC2)sc2[nH]c(-c3cc(C)c4ncnn4c3)c(C(C)C)c12` (single isomer, unassigned) [Example 263, 2-(4-(4-isopropyl-3-methyl-5-(8-methyl-[1,2,4]triazolo[1,5-a]pyridin-6-yl)-6H-thieno[2,3-b]pyrrol-2-yl)azepan-1-yl)acetamide] were 7.73 and 8.93.
As for `Cc1c(-c2[nH]c3sc(C4CCN(C5CCNC5=O)CC4)c(C)c3c2C(C)C)cn2ncnc2c1C` (single isomer, unassigned) [Example 290, 3-[4-[5-(7,8-dimethyl-[1,2,4]triazolo[1,5-a]pyridin-6-yl)-4-isopropyl-3-methyl-6H-thieno[2,3-b]pyrrol-2-yl]-1-piperidyl]pyrrolidin-2-one], the negative-log EC50 (pEC50) was 7.71 in experiment [1] and 9.19 in experiment [2].
Taken in the same sequence, the figures for `Cc1c(-c2[nH]c3sc(C4CCN(C5CCNC5=O)CC4)c(C)c3c2C(C)C)cn2ncnc2c1C` (single isomer, unassigned) [Example 291, 3-[4-[5-(7,8-dimethyl-[1,2,4]triazolo[1,5-a]pyridin-6-yl)-4-isopropyl-3-methyl-6H-thieno[2,3-b]pyrrol-2-yl]-1-piperidyl]pyrrolidin-2-one] were 7.65 and 9.22.
Taken in the same sequence, the figures for `Cc1c(-c2[nH]c3sc(C4CCC5(CC4)CNCCO5)c(C)c3c2C(C)C)cn2ncnc2c1C` (single isomer, unassigned) [Example 292, 9-(5-(7,8-dimethyl-[1,2,4]triazolo[1,5-a]pyridin-6-yl)-4-isopropyl-3-methyl-6H-thieno[2,3-b]pyrrol-2-yl)-1-oxa-4-azaspiro[5.5]undecane] were 8.41 and 10.05.
As to `Cc1c(-c2[nH]c3sc(C4CCC5(CC4)CNCCO5)c(C)c3c2C(C)C)cn2ncnc2c1C` (single isomer, unassigned) [Example 293, 9-(5-(7,8-dimethyl-[1,2,4]triazolo[1,5-a]pyridin-6-yl)-4 isopropyl-3-methyl-6H-thieno[2,3-b]pyrrol-2-yl)-1-oxa-4-azaspiro[5.5]undecane], the pEC50 in experiment [1] is 7.69; in experiment [2] it was 8.78.

Source of the values: US11661431B2, “Thienopyrrole compounds” (Gilead Sciences, Inc., priority 2021, dated 2023).
